Source: US10206944B2, “Chondroitin for use in medicine” (ALTERGON S.A., priority 2012, dated 2019)
Entries after “also recorded” stand apart in the source; their conditions may differ.

What was measured:
dogs suffering from DJD = experiment: Treatment of degenerative joint disease in dogs; format: in vivo, dog; settings: dogs with DJD, 15 mg/Kg/day with food, 6 months; scale of 1 to 10; placebo 2.5±1.3
Protocol: The therapeutic potential of chondroitin in the treatment of joint disease was evaluated in the dog, an experimental model wherein degenerative or inflammatory orthopaedic problems associated with degenerative joint disease (DJD) are particularly recurrent at both young and geriatric age.
The study was conducted on 90 animals with a mean weight of 30±10 Kg, a mean age of about 8 years, of different breeds, both males and females, all suffering from DJD of the shoulder, hip and/or stifle, randomised into three groups of 30 animals treated with 15 mg/Kg/day of chondroitin (C group), 15 mg/Kg/day of chondroitin sulphate (CS group) or 15 mg/Kg/day of starch (placebo group). The animals received the daily dose with their food. An X-ray and a set of diagnostic tests for DJD were conducted on a preliminary basis on all the animals included in the study. […] The study continued for 6 months; during the treatment, the animals, which were cared for by their owners, were monitored by three veterinary surgeons who independently evaluated the state of the animals. Every month the animals' owners and the three veterinary surgeons filled in a questionnaire, allocating a score on a scale of 1-5 to a set of parameters. Once a month the owners evaluated, on a scale of 1 to 5, the lameness of the animal, its willingness to play, load tolerance, and behaviour indicating pain symptoms. […]

[1] = tested on: Escherichia coli strain sensitive to the action of mutagenic substances; experiment: DNA-repair test; format: cell-based; settings: highest doses, with and without metabolic activation
Protocol: In vitro test, DNA-repair test—The DNA alteration test was conducted with a strain of Escherichia coli sensitive to the action of mutagenic substances. In the study, mitomycin C was used as positive control and penicillin G as negative control.

HT-1376 cells = experiment: Flow cytometry of apoptotic and necrotic cells (Annexin V-FITC/PI); format: cell-based, human; parameters: unit not given here; settings: 48 h, alone or combined
Protocol: Flow cytometry was used to evaluate the quantity of apoptotic or necrotic cells. Fluorescein isothiocyanate (Annexin V-FITC) combined with propidium iodide (PI) was used as marker; the apoptotic cells were Annexin V-FITC positive and PI negative, and the necrotic cells were Annexin V-FITC positive and PI positive. The cells were labelled by incubating them with Annexin V-FITC (Diagnostics MedSystems) and PI (Sigma) in a binding buffer (10 mM HEPES, pH 7.4, 150 mM NaCl, 5 mM KCl, 1 mM MgCl2, 2.5 mM CaCl2) for 10 min at ambient temperature, and then washing and resuspending the cell material in the same buffer. The apoptotic and necrotic cells were analysed by flow cytometry (FACScan, Becton-Dickinson), acquiring an average of 2×10^4 events per sample, with determinations in triplicate on three separate experiments.

[2] = tested on: mice or Sprague Dawley rats; experiment: Acute toxicity study; format: in vivo, mouse and rat
Protocol: Acute toxicity study—The study was conducted on two animal models, the mouse and rat, to which chondroitin was administered orally (p.o.) or intravenously (i.v.). For each experiment the animals (mice or Sprague Dawley rats) were divided into 5 groups of 20 (10 males and 10 females) which received p.o. or i.v. chondroitin at doses ranging from 250 to 2,000 mg/Kg for oral administration and 20 to 160 mg/Kg for intravenous administration; the volume administered was 10 mL/Kg for p.o. administration and 5 mL/Kg for i.v. administration.
At the end of the treatment the animals were euthanized and a complete autopsy was performed.

rats (Sprague Dawley) = experiment: Chronic toxicity study, 26 weeks; format: in vivo; settings: rat
Protocol: Chronic toxicity study—This study was conducted on rats (Sprague Dawley) treated daily for 26 weeks with chondroitin administered p.o. (by gavage) at doses ranging from 50 to 200 mg/Kg. The general state of health and behaviour of the treated animals were monitored daily, and weight variations, haematological status and urine were evaluated every 7 days. […] At the end of the study all animals were euthanized and an autopsy and histopathological analysis of the main organs (lungs, heart, liver, ovaries, uterus, testicles, kidneys, pituitary gland, lymph nodes and gastrointestinal tract) were conducted. None of these evaluations indicated any significant differences between the animals treated with chondroitin and the control animals which received the carrier alone.

[3] = tested on: Enterococcus faecalis strain ATCC 19433; experiment: Inhibition of bacterial growth on plate, E. faecalis; format: cell-based
Protocol: The antibacterial activity of chondroitin (C) and chondroitin sulphate (CS) on the growth of Escherichia coli ATCC 25922 and Enterococcus faecalis ATCC 19433 on a solid medium in vitro was examined. The concentrations explored ranged from 40 μg/mL to 40 mg/mL of C or CS as final concentrations in the medium. Brain-heart infusion (Oxoid) was used as culture medium for E. coli ATCC 25922, and M17 (Oxoid) for E. faecalis ATCC 19433; both media were adjusted to the same pH and the same osmolarity before being solidified by adding agar and cooled. 100 μL of a bacterial suspension containing 10^2, 10^3 or 10^4 bacteria/mL was plated as inoculum. […] The number of colonies was then counted on control plates in the absence of the substances under study and on plates at the various concentrations of C and CS. The data from the experiments for the two micro-organisms, conducted in triplicate for each of the conditions, are shown in tables 7 and 8.

[4] = 0.04 μg/mL of C or CS and 0.15 μg/mL of GEM
[5] = 5.7 μg/mL of C or CS and 1.7 μg/mL of MMC
[6] = 40 μg/mL, 10 bacteria inoculated
[7] = 40 μg/mL, 100 bacteria inoculated
[8] = 40 μg/mL, 1000 bacteria inoculated
[9] = 400 μg/mL, 10 bacteria inoculated
[10] = 400 μg/mL, 100 bacteria inoculated
[11] = 400 μg/mL, 1000 bacteria inoculated
[12] = 4 mg/mL, 10 bacteria inoculated
[13] = 4 mg/mL, 100 bacteria inoculated
[14] = 4 mg/mL, 1000 bacteria inoculated
[15] = 40 mg/mL (maximum concentration)
[16] = 40 mg/mL, 10 bacteria inoculated
[17] = 40 mg/mL, 100 bacteria inoculated
[18] = 40 mg/mL, 1000 bacteria inoculated

Row | Substance | average overall score for the regression of the disease (dogs suffering from DJD) | Cell state: apoptotic advanced (HT-1376 cells; [4]) | Cell state: apoptotic early (HT-1376 cells; [4]) | Cell state: necrotic (HT-1376 cells; [4]) | Cell state: viable (HT-1376 cells; [4]) | Cell state: apoptotic advanced (HT-1376 cells; [5]) | Cell state: apoptotic early (HT-1376 cells; [5]) | Cell state: necrotic (HT-1376 cells; [5]) | Cell state: viable (HT-1376 cells; [5]) | CFU after 36 h [3, 6] [CFU] | CFU after 36 h [3, 7] [CFU] | CFU after 36 h [3, 8] [CFU] | Inhibition factor ([3]; 400 μg/mL) | Qualitative valuation of inhibition ([3]; 400 μg/mL) | CFU after 36 h [3, 9] [CFU] | CFU after 36 h [3, 10] [CFU] | CFU after 36 h [3, 11] [CFU] | Inhibition factor ([3]; 4 mg/mL) | Qualitative valuation of inhibition ([3]; 4 mg/mL) | CFU after 36 h [3, 12] [CFU] | also measured
1 | chondroitin | 8.5±2.1 | 7 ± 2 | 6 ± 1 | 28 ± 3 | 59 ± 2 | 2 ± 1 | 1 ± 1 | 41 ± 2 | 56 ± 3 | 8 ± 2 | 82 ± 5 | 870 ± 70 | 2 | significant | 5 ± 1 | 55 ± 6 | 480 ± 30 | 6.1 | significant | 0 | interaction with / alteration of DNA (DNA-repair test) [1]: does not interact and does not alter the DNA; also recorded: Even at higher doses it does not interact and does not alter; LD50 ([2]; acute, single dose i.v., mouse and rat): > 160 mg/kg; signs of toxicity or mortality ([2]; examined every 24 h for 40 days, up to 2,000 mg/Kg p.o., 160 mg/Kg i.v.): no signs of toxicity or mortality were observed; chronic toxicity, conclusion (rats (Sprague Dawley); 50 to 200 mg/Kg p.o., 26 weeks): non-toxic at the doses used; No toxicity (dose), chronic 26 weeks (rats (Sprague Dawley); p.o., daily for 26 weeks): No toxicity >200 mg/kg/day p.o.; Inhibition factor ([3]; 40 μg/mL): 1.2; Qualitative valuation of inhibition ([3]; 40 μg/mL): mild; CFU after 36 h [3, 13]: 18 ± 4 CFU; CFU after 36 h [3, 14]: 150 ± 4 CFU; Qualitative valuation of inhibition ([3]; 40 mg/mL): high; Inhibition factor [3, 15]: 50; CFU after 36 h [3, 16]: 0 CFU; CFU after 36 h [3, 17]: 0 CFU; CFU after 36 h [3, 18]: 20 ± 2 CFU
2 | chondroitin sulphate [CS, reference compound] | 5.3±2.3 | 5 ± 1 | 4 ± 1 | 23 ± 2 | 68 ± 4 | 1 ± 1 | 1 ± 1 | 36 ± 2 | 62 ± 4 | 8 ± 2 | 90 ± 7 | 960 ± 70 | 1.3 | mild | 7 ± 1 | 80 ± 5 | 780 ± 70 | 2 | significant | 5 ± 1 | CFU after 36 h [3, 13]: 48 ± 4 CFU; CFU after 36 h [3, 14]: 520 ± 30 CFU; Qualitative valuation of inhibition ([3]; 40 mg/mL): high; Inhibition factor [3, 15]: 7.4; CFU after 36 h [3, 16]: 0 CFU; CFU after 36 h [3, 17]: 15 ± 2 CFU; CFU after 36 h [3, 18]: 120 ± 10 CFU
